Key:
ACE2 [1] = target: T1, ACE2 (Homo sapiens, UniProt Q9BYF1); test: Directed screen of ACE2 versus a set of metalloprotease inhibitors; assay type: biochemical; details: directed screen of GlaxoSmithKline metalloprotease inhibitor set
ACE2 [2] = target: T1, ACE2; details: it has been reported; no reference given; cited from earlier work

T1 sequence (Q9BYF1 18-805): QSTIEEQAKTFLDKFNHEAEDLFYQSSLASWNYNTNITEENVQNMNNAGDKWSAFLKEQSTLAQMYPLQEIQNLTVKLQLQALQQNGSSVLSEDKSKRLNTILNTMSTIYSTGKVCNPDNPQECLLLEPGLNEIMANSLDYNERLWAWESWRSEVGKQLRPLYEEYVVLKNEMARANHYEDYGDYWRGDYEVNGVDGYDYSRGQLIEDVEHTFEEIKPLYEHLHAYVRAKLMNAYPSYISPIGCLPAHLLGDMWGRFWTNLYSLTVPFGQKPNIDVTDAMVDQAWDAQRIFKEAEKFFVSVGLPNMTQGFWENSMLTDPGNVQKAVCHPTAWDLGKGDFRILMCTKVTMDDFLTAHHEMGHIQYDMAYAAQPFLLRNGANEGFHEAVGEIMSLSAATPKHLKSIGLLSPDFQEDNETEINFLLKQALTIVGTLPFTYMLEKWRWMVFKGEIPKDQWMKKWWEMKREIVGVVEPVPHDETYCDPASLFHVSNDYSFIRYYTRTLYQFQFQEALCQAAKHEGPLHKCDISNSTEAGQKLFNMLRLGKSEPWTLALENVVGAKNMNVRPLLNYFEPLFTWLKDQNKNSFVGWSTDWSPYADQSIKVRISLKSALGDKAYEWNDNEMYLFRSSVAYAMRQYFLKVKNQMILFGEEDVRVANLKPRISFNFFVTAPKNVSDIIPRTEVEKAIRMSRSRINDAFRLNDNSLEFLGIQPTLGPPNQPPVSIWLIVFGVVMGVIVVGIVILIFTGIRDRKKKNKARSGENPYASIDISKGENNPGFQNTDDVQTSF

SMILES | activity in the ACE2 screen (ACE2 [1]) | effect on ACE2 enzyme activity (ACE2 [2])
C[C@H](CS)C(=O)N1CCC[C@H]1C(=O)O [captopril] | inactive | do not attenuate ACE2 enzyme activity
NCCCC[C@H](N[C@@H](CCc1ccccc1)C(=O)O)C(=O)N1CCC[C@H]1C(=O)O [lisinopril] |  | do not attenuate ACE2 enzyme activity

Reference: publication PMC7126659 (Bioorganic & Medicinal Chemistry Letters, 2007)
